According to patent US20110014148A1, “Cationic Surfactants Having Improved Properties” (COGNIS IP MANAGEMENT GMBH, priority 2008, published 2011):

Legend:
[1] = Biodegradability in accordance with OECD 301 B
Method: (§1) For the cationic surfactant type 1 from Table 2, the biodegradability and toxicity was determined in accordance with OECD 301 B against algae.

algae = format: cell-based
Method: as §1

CCCCCCCCCCCCCCCCCCCCCC[N+](C)(C)C.[Cl-] [behentrimonium chloride]
Biodegradability [1]: not degraded
Toxicity towards algae (algae): < 1 mg/L
